From US20210045385A1, “PYRIDAZINONE-SUBSTITUTED KETOXIMES AS HERBICIDES” (FMC Corporation, priority 2018, published 2021)

Key:
[1] = tested on: foxtail, giant (giant foxtail, Setaria faberii); assay: Test A preemergence, visual plant response rating; type: in vivo; conditions: for Foxtail, Giant plant response rating: 125 g ai/ha, preemergence, 0 to 100 scale, 0 no effect, 100 complete control; for Foxtail, Giant plant response rating (0 to 100 scale): 500 g ai/ha Preemergence, approx. 10 days
Summary of the method: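 Preemergence: seeds in loam/sand blend given directed soil spray of compound in non-phytotoxic solvent with surfactant. Postemergence: plants 2–10 cm, one- to two-leaf stage, sprayed with same formulation. Visual injury rated vs untreated controls after ~10 days in greenhouse, 0 (no effect) to 100 (complete control).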

[2] = tested on: Italian ryegrass (Lolium multiflorum); assay: Test A preemergence, visual plant response rating; type: in vivo; conditions: for Ryegrass, Italian plant response rating: 125 g ai/ha, preemergence, 0 to 100 scale, 0 no effect, 100 complete control; for Ryegrass, Italian plant response rating (0 to 100 scale): 500 g ai/ha Preemergence, approx. 10 days
Summary of the method: (§1)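 Ratings use a 0–100 visual scale (100 = complete control) against untreated controls, scored about 10 days after greenhouse treatment. Test chemicals were formulated in surfactant-containing non-phytotoxic solvent and applied either as soil spray after planting (preemergence) or onto one- to two-leaf, 2–10 cm plants (postemergence).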

[3] = tested on: pigweed (Amaranthus retroflexus); assay: Test A preemergence, visual plant response rating; type: in vivo; conditions: for Pigweed plant response rating: 125 g ai/ha, preemergence, 0 to 100 scale, 0 no effect, 100 complete control; for Pigweed plant response rating (0 to 100 scale): 500 g ai/ha Preemergence, approx. 10 days
Summary of the method: as §1

[4] = tested on: kochia (Kochia scoparia); assay: Test A preemergence, visual plant response rating; type: in vivo; conditions: for Kochia plant response rating: 125 g ai/ha, preemergence, 0 to 100 scale, 0 no effect, 100 complete control; for Kochia plant response rating (0 to 100 scale): 500 g ai/ha Preemergence, approx. 10 days
Summary of the method: as §1

[5] = tested on: barnyardgrass (Echinochloa crus-galli); assay: Test A preemergence, visual plant response rating; type: in vivo; conditions: for Barnyardgrass plant response rating: 125 g ai/ha, preemergence, 0 to 100 scale, 0 no effect, 100 complete control; for Barnyardgrass plant response rating (0 to 100 scale): 500 g ai/ha Preemergence, approx. 10 days
Summary of the method: as §1

[6] = tested on: rice (Oryza sativa); assay: Test B flooded paddy test, visual plant response rating; type: in vivo; conditions: 250 g ai/ha, Flood, applied to paddy water, 2-leaf stage, evaluated after 13 to 15 days
Summary of the method: (§2)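 Plants were raised to the 2-leaf stage, then pots were flooded to 3 cm above the soil and test compound was applied directly into the paddy water. Water depth was held for the whole test; after 13 to 15 days in a greenhouse, responses were scored visually against controls.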

[7] = tested on: ducksalad (Heteranhera limosa); assay: as above; type: in vivo; conditions: 250 g ai/ha, Flood, applied to paddy water, 2-leaf stage, evaluated after 13 to 15 days
Summary of the method: as §2

[8] = tested on: sedge, umbrella (small-flower umbrella sedge, Cyperus difformis); assay: as above; type: in vivo; conditions: 250 g ai/ha, Flood, applied to paddy water, 2-leaf stage, evaluated after 13 to 15 days
Summary of the method: as §2

[9] = tested on: barnyardgrass (Echinochloa crus-galli); assay: as above; type: in vivo; conditions: 250 g ai/ha, Flood, applied to paddy water, 2-leaf stage, evaluated after 13 to 15 days
Summary of the method: as §2

[10] = tested on: galium (catchweed bedstraw, Galium aparine); assay: Test A postemergence, visual plant response rating; type: in vivo; conditions: for Galium plant response rating (0 to 100 scale): 500 g ai/ha, postemergence, 0 is no effect, 100 is complete control; for Galium plant response rating: Postemergence, 125 g ai/ha, 0 to 100 scale (0 no effect, 100 complete control)
Summary of the method: as §1

[11] = tested on: corn (Zea mays); assay: Test A postemergence, visual plant response rating; type: in vivo; conditions: for Corn plant response rating (0 to 100 scale): 500 g ai/ha, postemergence, 0 is no effect, 100 is complete control; for Corn plant response rating: Postemergence, 125 g ai/ha, 0 to 100 scale (0 no effect, 100 complete control)
Summary of the method: as §1

[12] = tested on: foxtail, giant (giant foxtail, Setaria faberii); assay: Test A postemergence, visual plant response rating; type: in vivo; conditions: for Foxtail, Giant plant response rating (0 to 100 scale): 500 g ai/ha, postemergence, 0 is no effect, 100 is complete control; for Foxtail, Giant plant response rating: Postemergence, 125 g ai/ha, 0 to 100 scale (0 no effect, 100 complete control)
Summary of the method: as §1

[13] = tested on: Italian ryegrass (Lolium multiflorum); assay: Test A postemergence, visual plant response rating; type: in vivo; conditions: for Ryegrass, Italian plant response rating (0 to 100 scale): 500 g ai/ha, postemergence, 0 is no effect, 100 is complete control; for Ryegrass, Italian plant response rating: Postemergence, 125 g ai/ha, 0 to 100 scale (0 no effect, 100 complete control)
Summary of the method: as §1

[14] = tested on: pigweed (Amaranthus retroflexus); assay: Test A postemergence, visual plant response rating; type: in vivo; conditions: for Pigweed plant response rating (0 to 100 scale): 500 g ai/ha, postemergence, 0 is no effect, 100 is complete control; for Pigweed plant response rating: Postemergence, 125 g ai/ha, 0 to 100 scale (0 no effect, 100 complete control)
Summary of the method: as §1

[15] = tested on: blackgrass (Alopecurus myosuroides); assay: Test A postemergence, visual plant response rating; type: in vivo; conditions: for Blackgrass plant response rating (0 to 100 scale): 500 g ai/ha, postemergence, 0 is no effect, 100 is complete control; for Blackgrass plant response rating: Postemergence, 125 g ai/ha, 0 to 100 scale (0 no effect, 100 complete control)
Summary of the method: as §1

[16] = tested on: ragweed (common ragweed, Ambrosia elatior); assay: Test A postemergence, visual plant response rating; type: in vivo; conditions: for Ragweed plant response rating (0 to 100 scale): 500 g ai/ha, postemergence, 0 is no effect, 100 is complete control; for Ragweed plant response rating: Postemergence, 125 g ai/ha, 0 to 100 scale (0 no effect, 100 complete control)
Summary of the method: as §1

[17] = tested on: kochia (Kochia scoparia); assay: Test A postemergence, visual plant response rating; type: in vivo; conditions: for Kochia plant response rating (0 to 100 scale): 500 g ai/ha, postemergence, 0 is no effect, 100 is complete control; for Kochia plant response rating: Postemergence, 125 g ai/ha, 0 to 100 scale (0 no effect, 100 complete control)
Summary of the method: as §1

[18] = tested on: wheat (Triticum aestivum); assay: Test A postemergence, visual plant response rating; type: in vivo; conditions: for Wheat plant response rating (0 to 100 scale): 500 g ai/ha, postemergence, 0 is no effect, 100 is complete control; for Wheat plant response rating: Postemergence, 125 g ai/ha, 0 to 100 scale (0 no effect, 100 complete control)
Summary of the method: as §1

[19] = tested on: barnyardgrass (Echinochloa crus-galli); assay: Test A postemergence, visual plant response rating; type: in vivo; conditions: for Barnyardgrass plant response rating (0 to 100 scale): 500 g ai/ha, postemergence, 0 is no effect, 100 is complete control; for Barnyardgrass plant response rating: Postemergence, 125 g ai/ha, 0 to 100 scale (0 no effect, 100 complete control)
Summary of the method: as §1

SMILES	Foxtail, Giant plant response rating [1]	Foxtail, Giant plant response rating (0 to 100 scale) [1]	Ryegrass, Italian plant response rating [2]	Ryegrass, Italian plant response rating (0 to 100 scale) [2]	Pigweed plant response rating [3]	Pigweed plant response rating (0 to 100 scale) [3]	Kochia plant response rating [4]	Kochia plant response rating (0 to 100 scale) [4]	Barnyardgrass plant response rating [5]	Barnyardgrass plant response rating (0 to 100 scale) [5]	Plant response rating, Rice (0 to 100 scale, 0 is no effect, 100 is complete control) [6]	Plant response rating, Ducksalad (0 to 100 scale, 0 is no effect, 100 is complete control) [7]	Plant response rating, Sedge, Umbrella (0 to 100 scale, 0 is no effect, 100 is complete control) [8]	Plant response rating, Barnyardgrass (0 to 100 scale, 0 is no effect, 100 is complete control) [9]	melting point	Galium plant response rating (0 to 100 scale) [10]	Galium plant response rating [10]	Corn plant response rating (0 to 100 scale) [11]	Corn plant response rating [11]	Foxtail, Giant plant response rating (0 to 100 scale) [12]	further results
CO/N=C(\c1c(O)c(C)nn(C)c1=O)c1cc(Br)cc2ccccc12 [Compound 91, 4-[(Z)-(3-bromo-1-naphthalenyl)(methoxyimino)methyl]-5-hydroxy-2,6-dimethyl-3(2H)-pyridazinone]	100	100	80	100	100	100	60	60	100	100	20	60	60	65	129 to 133 °C	100	100	70	30	90	Foxtail, Giant plant response rating [12]: 80; Ryegrass, Italian plant response rating (0 to 100 scale) [13]: 100; Ryegrass, Italian plant response rating [13]: 100; Pigweed plant response rating (0 to 100 scale) [14]: 90; Pigweed plant response rating [14]: 80; Blackgrass plant response rating (0 to 100 scale) [15]: 100; Blackgrass plant response rating [15]: 100; Ragweed plant response rating (0 to 100 scale) [16]: 100; Ragweed plant response rating [16]: 100; Kochia plant response rating (0 to 100 scale) [17]: 80; Kochia plant response rating [17]: 60; Wheat plant response rating (0 to 100 scale) [18]: 80; Wheat plant response rating [18]: 50; Barnyardgrass plant response rating (0 to 100 scale) [19]: 80; Barnyardgrass plant response rating [19]: 80
CO/N=C(/c1c(O)c(C)nn(C)c1=O)c1cc(Br)cc2ccccc12 [Compound 99, 4-[(E)-(3-bromo-1-naphthalenyl)(methoxyimino)methyl]-5-hydroxy-2,6-dimethyl-3(2H)-pyridazinone]	100	100	90	100	90	100	70	90	90	100	15	70	70	25	194 to 198 °C	100	90	60	30	80	Foxtail, Giant plant response rating [12]: 80; Ryegrass, Italian plant response rating (0 to 100 scale) [13]: 90; Ryegrass, Italian plant response rating [13]: 90; Pigweed plant response rating (0 to 100 scale) [14]: 100; Pigweed plant response rating [14]: 60; Blackgrass plant response rating (0 to 100 scale) [15]: 100; Blackgrass plant response rating [15]: 90; Ragweed plant response rating (0 to 100 scale) [16]: 90; Ragweed plant response rating [16]: 90; Kochia plant response rating (0 to 100 scale) [17]: 70; Kochia plant response rating [17]: 50; Wheat plant response rating (0 to 100 scale) [18]: 80; Wheat plant response rating [18]: 50; Barnyardgrass plant response rating (0 to 100 scale) [19]: 90; Barnyardgrass plant response rating [19]: 80
